Where “and” joins values, the source holds several entries; their conditions need not be identical. Equal entries are not always repeated. Inconclusive results and toxic doses are left out.

The experiment concerns P388 leukemia ip, CD2F1 mice, survival T/C. The experiment is described as follows: NCI In Vivo Anticancer Drug Screen. Data for tumor model P388 Leukemia (intraperitoneal) in CD2F1 (CDF1) mice. The conditions noted are these: endpoint: median survival time, higher = longer survival. The method in brief: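 Mice carrying the transplanted tumor received test compound or vehicle. Survival was recorded in each group, and the value is the treated-group measurement divided by that of the vehicle-treated control group.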

Where [1] appears, read: dose: 50.0 mg/kg/injection, schedule: Q01DX005 (ip), vehicle: saline.
Where [2] appears, read: dose: 100.0 mg/kg/injection, schedule: Q01DX005 (ip), vehicle: saline.
[3] abbreviates: dose: 50.0 mg/kg/injection, schedule: Q01DX009 (ip), vehicle: saline with Tween-80.
The mark [4] stands for this setting: dose: 100.0 mg/kg/injection, schedule: Q01DX009 (ip), vehicle: saline with Tween-80.
Where [5] appears, read: dose: 50.0 mg/kg/injection, schedule: Q01DX009 (ip), vehicle: Klucel (hydroxypropylcellulose) (HPC).
The mark [6] stands for this setting: dose: 100.0 mg/kg/injection, schedule: Q01DX009 (ip), vehicle: Klucel (hydroxypropylcellulose) (HPC).
Setting [7] is: dose: 200.0 mg/kg/injection, schedule: Q01DX009 (ip), vehicle: Klucel (hydroxypropylcellulose) (HPC).
Setting [8] is: dose: 50.0 mg/kg/injection, schedule: Q01DX005 (ip), vehicle: saline with Tween-80.
[9] abbreviates: dose: 100.0 mg/kg/injection, schedule: Q01DX005 (ip), vehicle: saline with Tween-80.
The mark [10] stands for this setting: dose: 200.0 mg/kg/injection, schedule: Q01DX005 (ip), vehicle: saline with Tween-80.
The mark [11] stands for this setting: dose: 25.0 mg/kg/injection, schedule: Q01DX009 (ip), vehicle: saline with Tween-80.
Where [12] appears, read: dose: 50.0 mg/kg/injection, schedule: Q01DX005 (ip), vehicle: Klucel (hydroxypropylcellulose) (HPC).
Setting [13] is: dose: 100.0 mg/kg/injection, schedule: Q01DX005 (ip), vehicle: Klucel (hydroxypropylcellulose) (HPC).
The mark [14] stands for this setting: dose: 200.0 mg/kg/injection, schedule: Q01DX005 (ip), vehicle: Klucel (hydroxypropylcellulose) (HPC).

As to `CC1CC2(c3ccccc3)C(=O)NC(=O)N=C2O1` (stereo not drawn), the T/C is, setting by setting: (dose: 100.0 mg/kg/injection, schedule: Q04DX002 (ip), vehicle: Klucel (hydroxypropylcellulose) (HPC)) 105 % of control; (dose: 200.0 mg/kg/injection, schedule: Q04DX002 (ip), vehicle: Klucel (hydroxypropylcellulose) (HPC)) 109 % of control; (dose: 400.0 mg/kg/injection, schedule: Q04DX002 (ip), vehicle: Klucel (hydroxypropylcellulose) (HPC)) 105 % of control.
In the case of `CC1=Nc2nnnn2N=C(C)C1`, the T/C (dose: 25.0 mg/kg/injection, schedule: Q01DX005 (ip), vehicle: saline) is 104 % of control; the T/C under setting [1] was 92 % of control; the T/C under setting [2] was 95 % of control.
Take `CC(C)(C)CC(C)(C)c1ccc(OCc2ccc(Cl)cc2)cc1`: the T/C was 100 % of control under setting [3]; 100 % of control under setting [4]; 98 % of control (dose: 200.0 mg/kg/injection, schedule: Q01DX009 (ip), vehicle: saline with Tween-80).
As for `O/N=C\c1cc2ccccc2c[n+]1Cc1ccc2ccc3cccc4ccc1c2c34`, the T/C (dose: 6.25 mg/kg/injection, schedule: Q01DX005 (ip), vehicle: saline with Tween-80) was 108 % of control and the T/C (dose: 12.5 mg/kg/injection, schedule: Q01DX005 (ip), vehicle: saline with Tween-80) is 108 % of control.
In the case of `Nc1ccc(N)cc1`, the T/C (dose: 5.0 mg/kg/injection, schedule: Q01DX009 (ip), vehicle: saline with Tween-80) was 95 % of control; the T/C (dose: 5.0 mg/kg/injection, schedule: Q04DX003 (ip), vehicle: saline with Tween-80) is 104 % of control; the T/C (dose: 10.0 mg/kg/injection, schedule: Q01DX009 (ip), vehicle: saline with Tween-80) is 100 % of control; the T/C (dose: 10.0 mg/kg/injection, schedule: Q04DX003 (ip), vehicle: saline with Tween-80) was 104 % of control; the T/C (dose: 20.0 mg/kg/injection, schedule: Q01DX009 (ip), vehicle: saline with Tween-80) was 100 % of control; the T/C (dose: 20.0 mg/kg/injection, schedule: Q04DX003 (ip), vehicle: saline with Tween-80) is 104 % of control.
For `COc1cc2c3c4c(ccc3c1OC)CCCN4CC2`, the T/C reads like this: (dose: 50.0 mg/kg/injection, schedule: Q01DX005 (ip), vehicle: Klucel + Tween-80) 99 % of control; (dose: 100.0 mg/kg/injection, schedule: Q01DX005 (ip), vehicle: Klucel + Tween-80) 97 % of control.
`COc1cccc2c1C(=O)c1c(O)c3c(c(O)c1C2=O)C[C@@](O)(C(C)=O)C[C@@H]3OC1CC(N(Cc2ccccc2)Cc2ccccc2)C(O)C(C)O1` (stereo partly drawn): the T/C (dose: 0.78 mg/kg/injection, schedule: Q01DX009 (ip), vehicle: water) is 105 % of control; the T/C (dose: 1.56 mg/kg/injection, schedule: Q01DX009 (ip), vehicle: water) is 114 % of control; the T/C (dose: 6.25 mg/kg/injection, schedule: Q01DX009 (ip), vehicle: water) was 156 % of control; the T/C (dose: 12.5 mg/kg/injection, schedule: Q01DX009 (ip), vehicle: water) is 189 % of control and 221 % of control; the T/C (dose: 13.0 mg/kg/injection, schedule: Q04DX003 (ip), vehicle: water) is 158 % of control; the T/C (dose: 21.6 mg/kg/injection, schedule: Q04DX003 (ip), vehicle: water) was 180 % of control. The T/C runs as follows: (dose: 25.0 mg/kg/injection, schedule: Q01DX009 (ip), vehicle: water) 247 % of control and 271 % of control; (dose: 50.0 mg/kg/injection, schedule: Q01DX009 (ip), vehicle: water) 92 % of control; (dose: 60.0 mg/kg/injection, schedule: Q04DX003 (ip), vehicle: water) 94 % of control.
Take `O=c1/c(=C/c2ccc(Cl)cc2)sc2nc(-c3ccccc3)nn12`: the T/C is 94 % of control under setting [5], 95 % of control under setting [6] and 101 % of control under setting [7].
As for `CCOc1ccccc1NC(=O)NCC(=O)NNC(=O)Nc1ccc(Cl)c([N+](=O)[O-])c1`, the T/C (dose: 60.0 mg/kg/injection, schedule: Q01DX005 (ip), vehicle: saline with Tween-80) was 93 % of control; the T/C (dose: 120.0 mg/kg/injection, schedule: Q01DX005 (ip), vehicle: saline with Tween-80) was 98 % of control; the T/C (dose: 240.0 mg/kg/injection, schedule: Q01DX005 (ip), vehicle: saline with Tween-80) is 92 % of control.
Turning to `O=C(Cc1ccccc1)CC(CC(=O)Cc1ccccc1)c1ccccc1`, the T/C is, setting by setting: under setting [8], 94 % of control; under setting [9], 89 % of control; under setting [10], 103 % of control.
Regarding `OC1COC(O)(CNCCc2c[nH]c3ccc(OCc4ccccc4)cc23)C(O)C1O` (stereo not drawn), the T/C (dose: 60.0 mg/kg/injection, schedule: Q01DX005 (ip), vehicle: Klucel (hydroxypropylcellulose) (HPC)) was 101 % of control; the T/C (dose: 120.0 mg/kg/injection, schedule: Q01DX005 (ip), vehicle: Klucel (hydroxypropylcellulose) (HPC)) was 99 % of control; the T/C (dose: 240.0 mg/kg/injection, schedule: Q01DX005 (ip), vehicle: Klucel (hydroxypropylcellulose) (HPC)) was 87 % of control.
Turning to `O=C(O)c1ccc(=O)oc1`, the T/C was 98 % of control (dose: 12.5 mg/kg/injection, schedule: Q01DX009 (ip), vehicle: saline with Tween-80); 94 % of control under setting [11]; 116 % of control under setting [3]; 116 % of control under setting [4].
`Cc1ccc(S(=O)(=O)N/N=C/c2c(Cl)nc3sccn23)cc1`: the T/C (dose: 100.0 mg/kg/injection, schedule: Q01DX001 (ip), vehicle: Klucel (hydroxypropylcellulose) (HPC)) is 111 % of control; the T/C (dose: 200.0 mg/kg/injection, schedule: Q01DX001 (ip), vehicle: Klucel (hydroxypropylcellulose) (HPC)) is 108 % of control; the T/C (dose: 400.0 mg/kg/injection, schedule: Q01DX001 (ip), vehicle: Klucel (hydroxypropylcellulose) (HPC)) was 111 % of control.
On to `CC(C)NCC(O)c1ccc(NS(C)(=O)=O)cc1` (stereo not drawn), for which the T/C under setting [1] was 108 % of control; the T/C under setting [2] was 100 % of control; the T/C (dose: 200.0 mg/kg/injection, schedule: Q01DX005 (ip), vehicle: saline) is 104 % of control.
As for `c1cc2cc(-c3ccc4cc(-c5ccc6oc(C7=NCCN7)cc6c5)[nH]c4c3)[nH]c2cc1C1=NCCN1`, the T/C by setting is: under setting [12], 156 % of control; under setting [13], 114 % of control; under setting [14], 91 % of control.
Turning to `Cc1ccc2c(c1)S(=O)(=O)c1ccc3ccccc3c1N2`, the T/C under setting [8] was 101 % of control, the T/C under setting [9] was 99 % of control and the T/C under setting [10] is 100 % of control.
Regarding `c1ccc2c[n+](CC[n+]3ccc4ccccc4c3)ccc2c1`, the T/C under setting [11] is 100 % of control and the T/C under setting [3] was 118 % of control.
As for `COc1c2occc2c(NC(=O)C(Cl)(Cl)Cl)c2ccc(=O)oc12`, the T/C is, setting by setting: (dose: 5.0 mg/kg/injection, schedule: Q04DX002 (ip), vehicle: saline with Tween-80) 102 % of control; (dose: 10.0 mg/kg/injection, schedule: Q04DX002 (ip), vehicle: saline with Tween-80) 101 % of control; (dose: 20.0 mg/kg/injection, schedule: Q04DX002 (ip), vehicle: saline with Tween-80) 102 % of control.
Take `COc1ccc(/C=N/NC(=O)CNC(=O)Nc2n[nH]c(=S)s2)cc1`: the T/C was 100 % of control under setting [12], 104 % of control under setting [13] and 100 % of control under setting [14].
Take `ClCCN(CCCl)c1ccc(/C=N/Nc2ccnc3ccccc23)cc1`: the T/C by setting is: (dose: 0.39 mg/kg/injection, schedule: Q01DX009 (ip), vehicle: DMSO) 92 % of control; (dose: 0.78 mg/kg/injection, schedule: Q01DX009 (ip), vehicle: DMSO) 87 % of control; (dose: 1.56 mg/kg/injection, schedule: Q01DX009 (ip), vehicle: DMSO) 90 % of control.
As to `Cc1ccc(OCC(O)CN2CCN(c3ccc(Cl)cc3)CC2)cc1` (stereo not drawn), the T/C reads like this: (dose: 100.0 mg/kg/injection, schedule: Q01DX009 (ip), vehicle: saline sonified) 100 % of control; (dose: 200.0 mg/kg/injection, schedule: Q01DX009 (ip), vehicle: saline sonified) 95 % of control; (dose: 400.0 mg/kg/injection, schedule: Q01DX009 (ip), vehicle: saline sonified) 90 % of control.
Turning to `CC1C(c2ccccc2)OCCN1C(N)=S` (stereo not drawn), the T/C is 108 % of control under setting [5], 101 % of control under setting [6] and 101 % of control under setting [7].

The values above are taken from PubChem BioAssay AID330 (DTP/NCI, 2004).
